Laboratory results reported in patent publication US11846640B2, “Identification of anticoagulants in a sample” (DSM IP Assets B.V., priority 2013, dated 2023).

Assays:
Format in all cases: biochemical, human
[1] = test system: plasma samples; experiment: PT (HemosIL PT recombiplastin) clotting time; conditions: for Clotting time with PT: Table 6, spiked plasma, mean
Procedure: (§1) In order to address the above question, i.e. to determine the nature of an anticoagulant in a sample, a combination of several methods has to be performed, including PiCT® Method 1, PiCT® Method 4, aPTT (HemosIL™ aPTT SP), PT (HemosIL™ PT recombiplastin), and sometimes even a modified PiCT® Method 1 wherein polybrene has been added. In order to simulate this, plasma samples spiked with different levels of anticoagulants were analyzed using the ACL TOP® 500 analyzer.

[2] = test system: normal plasma pool (NPP); experiment: PiCT Method 3 clotting time on ACL TOP 500; conditions: Table 8B (argatroban), PiCT Method 3, NPP spiked, mean n = 4
Source text: The 4 methods (see above) are in more detail described in the Examples. Specific pipetting schemes were designed using NPP spiked with incremental amounts of anticoagulants in order to achieve high reproducibility of the test system, which is required for drug identification including use in a POC system. […] […]-50/I-180/50-S). […] […]-65/I-180/35-S on the ACL TOP® 500 or […]-65/I-180/40-S on the STA Compact® or […]-65/[…]-40 on the BCS® XP. […] […]-70/I-180/40-S on the ACL TOP® 500 or STA Compact®, or […]-60/I-180/45-S on the BCS® XP.

[3] = test system: plasma samples; experiment: PiCT Method 1 with polybrene added, clotting time; conditions: Table 6, spiked plasma, mean
Source text: By the addition of polybrene a distinction can be done, which of the anticoagulants is really present in the sample: if after addition of polybrene the measured clotting times are again back to RR when using the PiCT® Method 1, the sample comprises heparins, such as e.g. UFH or LMWH. Alternatively, if the result is not going back to RR, the sample comprises low concentrations of dabigatran or hirudin. […] The particular clotting times measured for the different anticoagulants are shown in Table 6, which is an example of results obtained in spiked plasma samples.
as §1, with “analyzer. For each drug, a specific pattern was obtained, i.e. clotting times within the RR and clotting times above the RR, depending on the used testing method, which is unique at least for the class of anticoagulant or even for a specific anticoagulant.” for “analyzer.”

Row | SMILES | Clotting time with PT ([1]; 50 ng) | Clotting time with PT ([1]; 200 ng) | PT clotting time relative to reference range (RR) ([1]; only at higher doses, in the range of 200 ng or more) | Clotting time ([2]; 0.2 μg/ml) | Clotting time ([2]; 0.4 μg/ml) | Clotting time ([2]; 0.6 μg/ml) | Clotting time ([2]; 0.8 μg/ml) | Clotting time ([2]; 1.0 μg/ml) | Clotting time ([2]; 1.2 μg/ml) | Clotting time ([2]; 1.4 μg/ml) | Clotting time ([2]; 1.6 μg/ml) | Clotting time ([2]; 1.8 μg/ml) | Clotting time ([2]; 2.0 μg/ml) | Clotting time with PT ([1]; 0.3 μg) | Clotting time with PT ([1]; 1.5 μg) | Clotting time with PiCT ® Method 1 + polybrene ([3]; 0.3 μg) | Clotting time with PiCT ® Method 1 + polybrene ([3]; 1.5 μg)
1 | O=C(NC[C@H]1CN(c2ccc(N3CCOCC3=O)cc2)C(=O)O1)c1ccc(Cl)s1 [rivaroxaban] | 12.2 s | 20.3 s | above the RR |  |  |  |  |  |  |  |  |  |  |  |  |  | 
2 | CC1CNc2c(cccc2S(=O)(=O)N[C@@H](CCCNC(=N)N)C(=O)N2CC[C@@H](C)C[C@@H]2C(=O)O)C1 (some centres unmarked) [argatroban] |  |  |  | 113 s | 145 s | 162 s | 179 s | 198 s | 204 s | 210 s | 232 s | 234 s | 240 s | 15.0 s | 31.2 s | 85.6 s | 126.4 s
